The source of these data is patent US10098840B2, “Nanoparticulate composition containing antibiotics for intramammary administration in animals” (priority 2010, dated 2018).

Data set [1] can be described thus: In vitro release profile of cloxacillin benzathine by direct dialysis in PBS:PEG and PBS:milk. As to conditions: 37° C.; PBS:PEG vs PBS:milk. The data set is classed as physicochemical. As to the method:
The evaluation of the release profile in vitro of the cloxacillin benzathine from the nanocarriers of reservoir type was performed according to the direct dialysis technique in two different release environments. Dialysis bags were inserted in containers containing a buffered saline solution and 1% polyethylene glycol 300 (PBS:PEG) or a buffered saline containing 1% of skimmed milk (PBS:milk) under 37° C. with moderate stirring. […] In pre-defined lapses, aliquots were removed and the environment was re-added with the same volume withdrawn. Right after, the samples were prepared and the supernatant dosed.

Data set [2] can be described thus: Degradation of the drug by HPLC during the dissolution test at pH 7.4. The data set is classed as physicochemical. As to conditions: until 540 minutes of test. As to the method:
In this work, the dissolution was conducted in pH 7.4 for it is about the pH of the milk of animals with mastitis (Gruet et al., 2001).

For the compound `Cc1onc(-c2ccccc2Cl)c1C(=O)N[C@@H]1C(=O)N2[C@@H]1SC(C)(C)[C@@H]2C(=O)O` [CLOXB, cloxacillin benzathine], the “release depending on the environment (1% PEG vs 1% milk), in words” value in data set [1] is “release was bigger in environment containing 1% of PEG”. In addition, the “degradation of the drug” value in data set [2] is “no degradation”.
